Patent US6495528B1 (SmithKline Beecham Corporation, priority 1998, dated 2002)

Legend:
Format in all cases: cell-based
[1] = biological target: T1, human adenosine 2a receptor (Homo sapiens, UniProt P29274); assay: Agonist activity at adenosine 2a receptor, CHO cells with CRE-SPAP reporter (basal cAMP); conditions: CHO cells transfected with human A2a receptor; effect on basal cAMP via SPAP; ratio to NECA; minimum values (about 20% inactive impurity)
T1 construct: expressed in transfected cells; host or cells: Chinese hamster ovary (CHO) cells, also transfected with a CRE-SPAP reporter
Experimental: (§1) (1) Agonist activity against adenosine 2a, adenosine 1 and adenosine 3 receptor subtypes.
(§2) Agonist selectivity of compounds against other human adenosine receptors is determined using Chinese hamster ovary (CHO) cells transfected with the gene for the relevant human adenosine receptor following a method based on that of Castanon and Spevak, 1994. The CHO cells are also transfected with cyclic AMP response elements promoting the gene for secreted placental alkaline phosphatase (SPAP) (Wood, 1995). The effect of test compounds is determined by their effects on basal levels of cAMP (A2a ) or on forskolin-enhanced cAMP (A1 and A3) as reflected by changes in levels of SPAP. EC50 values for compounds are then determined as a ratio to that of the non-selective agonist N-ethyl carboxamide adenosine (NECA).

[2] = biological target: T2, human adenosine 1 receptor (Homo sapiens, UniProt P30542); assay: Agonist activity at adenosine 1 receptor, CHO cells with CRE-SPAP reporter (forskolin-enhanced cAMP); conditions: CHO cells transfected with human A1 receptor; effect on forskolin-enhanced cAMP via SPAP; ratio to NECA; minimum values (about 20% inactive impurity)
T2 construct: expressed in transfected cells; host or cells: Chinese hamster ovary (CHO) cells, also transfected with a CRE-SPAP reporter
T2 sequence (P30542 1-326): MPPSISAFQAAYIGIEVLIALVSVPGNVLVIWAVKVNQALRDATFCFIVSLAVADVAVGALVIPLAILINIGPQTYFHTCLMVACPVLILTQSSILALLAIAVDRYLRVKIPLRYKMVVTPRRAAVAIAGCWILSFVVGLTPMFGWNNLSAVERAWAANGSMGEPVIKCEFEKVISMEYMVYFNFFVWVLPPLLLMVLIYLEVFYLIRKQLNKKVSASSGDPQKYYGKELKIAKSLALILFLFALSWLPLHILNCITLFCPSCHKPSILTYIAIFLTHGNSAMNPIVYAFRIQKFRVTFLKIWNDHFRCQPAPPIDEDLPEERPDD
Experimental: as §1, §2

[3] = biological target: T3, human adenosine 3 receptor (Homo sapiens, UniProt P0DMS8); assay: Agonist activity at adenosine 3 receptor, CHO cells with CRE-SPAP reporter (forskolin-enhanced cAMP); conditions: CHO cells transfected with human A3 receptor; effect on forskolin-enhanced cAMP via SPAP; ratio to NECA; minimum values (about 20% inactive impurity)
T3 construct: expressed in transfected cells; host or cells: Chinese hamster ovary (CHO) cells, also transfected with a CRE-SPAP reporter
T3 sequence (P0DMS8 1-318): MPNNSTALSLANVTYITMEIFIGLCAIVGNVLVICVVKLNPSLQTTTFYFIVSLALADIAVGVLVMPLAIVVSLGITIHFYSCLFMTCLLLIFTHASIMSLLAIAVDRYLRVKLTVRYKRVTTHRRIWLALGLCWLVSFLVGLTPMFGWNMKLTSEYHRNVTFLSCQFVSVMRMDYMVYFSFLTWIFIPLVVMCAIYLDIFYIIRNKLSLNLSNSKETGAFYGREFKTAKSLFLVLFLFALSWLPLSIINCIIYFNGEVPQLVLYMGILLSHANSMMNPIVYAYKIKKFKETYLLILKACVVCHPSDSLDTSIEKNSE
Experimental: as §1, §2

T1 sequence (P29274 whole entry): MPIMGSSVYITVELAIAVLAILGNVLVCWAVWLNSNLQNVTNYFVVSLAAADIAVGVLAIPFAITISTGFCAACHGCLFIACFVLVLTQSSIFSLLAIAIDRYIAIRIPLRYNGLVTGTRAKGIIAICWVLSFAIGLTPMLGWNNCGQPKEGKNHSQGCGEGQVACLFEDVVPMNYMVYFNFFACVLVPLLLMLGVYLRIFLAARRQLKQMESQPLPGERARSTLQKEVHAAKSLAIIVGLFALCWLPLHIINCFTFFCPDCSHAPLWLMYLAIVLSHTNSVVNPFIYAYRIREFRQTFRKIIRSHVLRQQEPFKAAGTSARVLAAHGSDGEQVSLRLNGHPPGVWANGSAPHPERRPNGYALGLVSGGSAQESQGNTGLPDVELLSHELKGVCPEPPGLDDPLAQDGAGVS

Row | Structure (SMILES) | A2a EC50 as a ratio of that of NECA [1] | A1 EC50 as a ratio of that of NECA [2] | A3 EC50 as a ratio of that of NECA [3]
1 | CCCn1nnc(C2OC(n3cnc4c(NCC(c5ccccc5)c5ccccc5)nc(NCCN5CCCCC5)nc43)C(O)C2O)n1 [Example 2, 2R,3R,4S,5R)-2-[6-(2,2-Diphenyl-ethylamino)-2-(2-piperidin-1-yl-ethylamino)-purin-9-yl]-5-(2-propyl-2H-tetrazo-5-tetrahydro-furan-3,4-diol bis(trifluoroacetate)] | 30.95 | 755.4 | >93
2 | O=C(O)C(F)(F)F.O=C(O)C(F)(F)F.O[C@@H]1[C@H](O)[C@@H](c2nnn(CC3CC3)n2)O[C@H]1n1cnc2c(NCC(c3ccccc3)c3ccccc3)nc(NCCN3CCCCC3)nc21 [Example 4] | 37.24 | 1318.09 | >93
3 | OCCn1nnc(C2OC(n3cnc4c(NCC(c5ccccc5)c5ccccc5)nc(NCCN5CCCCC5)nc43)C(O)C2O)n1 [Example 5, (2R,3R,4S,5R)-2-[6-(2,2-Diphenyl-ethylamino)-2-(2-piperidin-1-yl-ethylamino)-purin-9-yl]-5-[2-(2-hydroxy-ethyl)-2H-tetrazo-5-yl]-tetrahydro-furan-3,4-diol bis(trifluoroacetate)] | 10.54 | 159.5 | >94
4 | O=C(O)C(F)(F)F.O=C(O)C(F)(F)F.O[C@@H]1[C@H](O)[C@@H](c2nnn(C3CCC3)n2)O[C@H]1n1cnc2c(NCC(c3ccccc3)c3ccccc3)nc(NCCN3CCCCC3)nc21 [Example 7] | 22.98 | 597.82 | >95
5 | CC(=O)OCCn1nnc(C2OC(n3cnc4c(NCC(c5ccccc5)c5ccccc5)nc(NCCN5CCCCC5)nc43)C(O)C2O)n1 (stereo not drawn) [Example 3, Acetic acid 2-(5-{5R-[6-(2,2-diphenyl-ethylamino)-2-(2-piperidin-1-yl-ethylamino)-purin-9-yl]-3S,4R-dihydroxy-tetrahydro-furan-2R -yl}-tetrazol-2-yl)-ethyl ester bis(trifluoroacetate)] | 16.59 | 310.5 | >93
6 | O=C(O)C(F)(F)F.O=C(O)C(F)(F)F.O[C@@H]1[C@H](O)[C@@H](c2nnn(CCCl)n2)O[C@H]1n1cnc2c(NCC(c3ccccc3)c3ccccc3)nc(NCCN3CCCCC3)nc21 [Example 6] | 24.05 | 411.9 | >97
7 | OCCCn1nnc(C2OC(n3cnc4c(NCC(c5ccccc5)c5ccccc5)nc(NCCN5CCCCC5)nc43)C(O)C2O)n1 [Example 1, 2R,3R,4S,5R)-2-[6-(2,2-Diphenyl-ethylamino)-2-(2-piperidin-1-yl-ethylamino)-purin-9-yl]-5-[2-(3-hydroxy-propyl)-2H-tetrazol-5-yl]-tetrahydro-furan-3,4-diol bis(trifluoroacetate)] | 22.64 | 434.8 | >93
8 | C=CCn1nnc(C2OC(n3cnc4c(NCC(c5ccccc5)c5ccccc5)nc(NCCN5CCCCC5)nc43)C(O)C2O)n1 [Example 8, (2R,3S,4R,5R)-2-(2-Allyl 2H-tetrazol-5-[6-(2,2-diphenyl-ethylamino)-2-(2-piperidin-1-yl-ethylamino)-purin-9-yl]-tetrahydro-furan-3,4-diolbis(trifluoroacetate)] | 26.38 | >6131 | >165
